Our source for the IC50 and Ratio IC50 values is ChEMBL document CHEMBL1154973 (Bioorg Med Chem Lett, 2010).

In assay [1] the target is T1, Acetylcholinesterase (Rattus norvegicus, UniProt P37136).
T1 sequence (P37136 whole entry): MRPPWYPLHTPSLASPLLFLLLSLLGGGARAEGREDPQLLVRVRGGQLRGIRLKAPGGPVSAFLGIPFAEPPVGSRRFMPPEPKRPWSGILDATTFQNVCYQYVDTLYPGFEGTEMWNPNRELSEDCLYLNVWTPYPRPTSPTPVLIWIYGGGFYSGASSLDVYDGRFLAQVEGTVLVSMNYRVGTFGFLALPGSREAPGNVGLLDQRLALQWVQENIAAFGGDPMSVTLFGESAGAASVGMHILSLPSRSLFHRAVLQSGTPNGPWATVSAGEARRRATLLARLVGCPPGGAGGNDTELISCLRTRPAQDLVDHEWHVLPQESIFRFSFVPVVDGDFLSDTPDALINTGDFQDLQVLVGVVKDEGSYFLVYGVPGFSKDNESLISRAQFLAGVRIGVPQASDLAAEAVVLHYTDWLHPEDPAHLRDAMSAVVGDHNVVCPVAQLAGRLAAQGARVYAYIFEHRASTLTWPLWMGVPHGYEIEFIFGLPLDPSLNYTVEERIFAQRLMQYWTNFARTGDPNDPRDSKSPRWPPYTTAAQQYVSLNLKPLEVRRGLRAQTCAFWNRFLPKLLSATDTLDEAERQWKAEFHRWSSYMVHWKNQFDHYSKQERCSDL
Briefly: Inhibition of rat brain AChE by Ellman's method. (In general: In Ellman's method for cholinesterases, released thiocholine reacts with DTNB.)

Assay [2] deals with T2, Acetylcholinesterase and butyrylcholinesterase (AChE and BChE) (Rattus norvegicus) (UniProt P37136+Q9JKC1). Briefly: Selectivity ratio of IC50 for rat plasma BChE to IC50 for rat brain AChE. In kind it is cell-free.
Assay [3] deals with Butyrylcholinesterase (Rattus norvegicus, UniProt Q9JKC1). Briefly: Inhibition of rat plasma BChE by Ellman's method. In kind it is cell-free.
The target of assay [4] is T2, Acetylcholinesterase and butyrylcholinesterase (AChE and BChE) (Rattus norvegicus). Briefly: Selectivity ratio of IC50 for rat brain AChE to IC50 rat plasma BChE. In kind it is cell-free.

Chain of Butyrylcholinesterase (Q9JKC1 whole entry): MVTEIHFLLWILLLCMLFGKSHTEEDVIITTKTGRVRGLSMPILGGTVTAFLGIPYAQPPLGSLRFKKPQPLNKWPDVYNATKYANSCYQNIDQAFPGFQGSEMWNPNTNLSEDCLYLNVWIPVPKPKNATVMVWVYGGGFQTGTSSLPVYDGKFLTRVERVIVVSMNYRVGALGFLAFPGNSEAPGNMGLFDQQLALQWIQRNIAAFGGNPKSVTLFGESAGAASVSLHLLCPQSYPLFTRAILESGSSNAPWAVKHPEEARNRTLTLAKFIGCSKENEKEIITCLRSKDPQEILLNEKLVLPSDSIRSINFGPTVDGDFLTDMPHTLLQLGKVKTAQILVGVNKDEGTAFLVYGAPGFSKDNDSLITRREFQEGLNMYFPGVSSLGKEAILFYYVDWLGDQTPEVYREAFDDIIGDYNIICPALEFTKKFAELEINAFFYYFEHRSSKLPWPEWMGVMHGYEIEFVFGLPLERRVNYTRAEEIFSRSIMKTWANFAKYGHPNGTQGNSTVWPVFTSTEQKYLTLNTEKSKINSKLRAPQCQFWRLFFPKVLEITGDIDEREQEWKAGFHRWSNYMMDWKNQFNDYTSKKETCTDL
T2 sequence (Q9JKC1 1-597, one chain of several): as the sequence (Q9JKC1 whole entry) above

Consider `CN1CC[C@@]2(C)c3cc(OC(=O)Nc4cccc(Cl)c4Cl)ccc3N(C)[C@@H]12`, for which the IC50 in assay [1] worked out at 66.2 nM; in assay [3], 517 nM. Besides, the Ratio IC50 in assay [2] is 8.

Regarding `CN1CC[C@@]2(C)c3cc(OC(=O)Nc4cccc(Cl)c4)ccc3N(C)[C@@H]12`, the results for the IC50 in assay [1] and in assay [3] were 38.7 nM and 105 nM, respectively. Further, the Ratio IC50 in assay [2] was found to be 3.

With `CC(C)c1cccc(C(C)C)c1NC(=O)Oc1ccc2c(c1)[C@]1(C)CCN(C)[C@@H]1N2C`, the IC50 in assay [1] is 735 nM; in assay [3] it was 830 nM.

For the compound `CN1CC[C@@]2(C)c3cc(OC(=O)Nc4cccc5ccccc45)ccc3N(C)[C@@H]12`, the IC50 was 4.2 nM in assay [1] and 14.1 nM in assay [3]. Moreover, the Ratio IC50 in assay [2] was found to be 3.

Take `Cc1c(Cl)cccc1NC(=O)Oc1ccc2c(c1)[C@]1(C)CCN(C)[C@@H]1N2C`: the IC50 turned out to be 6.4 nM in assay [1] and 113 nM in assay [3]. Moreover, the Ratio IC50 in assay [2] is 18.

As for `CN1CC[C@@]2(C)c3cc(OC(=O)Nc4ccc(Br)cc4)ccc3N(C)[C@@H]12`, in assay [4], the Ratio IC50 was found to be 7. In addition, the figures for the IC50 in assay [1] and in assay [3] were 168 nM and 14.9 nM, respectively.

Take `COc1ccc(NC(=O)Oc2ccc3c(c2)[C@]2(C)CCN(C)[C@@H]2N3C)cc1`: the Ratio IC50 in assay [4] is 5. The IC50 amounted to 29.9 nM in assay [1] and 5.8 nM in assay [3].

For the compound `CN1CC[C@@]2(C)c3cc(OC(=O)Nc4ccc(Cl)cc4)ccc3N(C)[C@@H]12`, the Ratio IC50 in assay [4] is 15. Also, the IC50 in assay [1] worked out at 914 nM; in assay [3] it was 61.3 nM.

In the case of `CN1CC[C@@]2(C)c3cc(OC(=O)Nc4ccccc4Cl)ccc3N(C)[C@@H]12`, the Ratio IC50 in assay [4] is 3. Also, the IC50 in assay [1] worked out at 264 nM; in assay [3], 88.7 nM.

As to `CN1CC[C@@]2(C)c3cc(OC(=O)Nc4ccccc4Br)ccc3N(C)[C@@H]12`, the results for the IC50 in assay [1] and in assay [3] were 66.5 nM and 39.6 nM, respectively.

As to `CN1CC[C@@]2(C)c3cc(OC(=O)Nc4cccc(C#N)c4)ccc3N(C)[C@@H]12`, the IC50 in assay [1] amounted to 442 nM; in assay [3], 1020 nM. Further, the Ratio IC50 in assay [2] came out at 4.

For `CN1CC[C@@]2(C)c3cc(OC(=O)Nc4ccccc4)ccc3N(C)[C@@H]12` [PHENSERINE], the IC50 in assay [1] is 11.9 nM; in assay [3], 104 nM. In addition, the Ratio IC50 in assay [2] is 10.

On to `CNC(=O)Oc1ccc2c(c1)[C@]1(C)CCN(C)[C@@H]1N2C` [PHYSOSTIGMINE], for which, in assay [3], half-maximal inhibition (IC50) required 7.6 nM.

Turning to `CN1CC[C@@]2(C)c3cc(OC(=O)Nc4cc(Cl)cc(Cl)c4)ccc3N(C)[C@@H]12`, the IC50 was 113 nM in assay [1] and 935 nM in assay [3]. Besides, the Ratio IC50 in assay [2] was found to be 8.

With `CN1CC[C@@]2(C)c3cc(OC(=O)NC4CCCCC4)ccc3N(C)[C@@H]12`, the IC50 in assay [1] was 8.5 nM; in assay [3], 1400 nM. The Ratio IC50 in assay [2] was 174.

Regarding `Cc1ccc(NC(=O)Oc2ccc3c(c2)[C@]2(C)CCN(C)[C@@H]2N3C)cc1Cl`, the IC50 in assay [1] was determined as 7.3 nM; in assay [3], 8.5 nM.

One may read the IC50 as the point on the concentration scale where inhibition reaches its midpoint. A high value points to a need for much substance.
